pIC50, pKi: −log10 of the molar value. Starred links: 1 amine or outer side, 2 acyl side, 3 side chain; linkers in the order of their positions; H or OH if unused. Non-standard residues stand in square brackets, D forms with d. Residues, ends and D or L forms follow the SMILES beside them. X1 = C[C@@H]1CCO[C@H]1[C@H](C(=O)[*:2])N(C)[*:1]; d(aThr) = C[C@@H](O)[C@@H](N)C(=O)O; NMeL = CN[C@@H](CC(C)C)C(=O)O; dNMeL = CN[C@H](CC(C)C)C(=O)O; dNMeV = CN[C@@H](C(=O)O)C(C)C; dNMeA = CN[C@H](C)C(=O)O
Experiments:
calcineurin = molecular target: T1, calcineurin (Homo sapiens, UniProt P62937+P63098+Q08209); test: Calcineurin Phosphatase (CaN) Assay; assay type: biochemical; conditions: in the presence of CypA, 1:1 complex of inhibitor with CypA
T1 construct: purchased Enzo Life Sciences BML-AK804
Excerpt: Calcineurin Phosphatase (CaN) Assay
The calcineurin phosphatase assay is a means for estimating the immunosuppressive potential of a test compound. Calcineurin is a serine-threonine protein phosphatase that on activation dephosphorylates members of the nuclear factor of activated T cells (NFAT), which are important in T lymphocyte activation.
To investigate the immunosuppressive potential of exemplary compounds of Formula I, which are cyclosporin analogs, their ability to inhibit calcineurin activity was measured in the presence and absence of CypA.
The CaN assay kit used is based on a colorimetric assay for measuring calcineurin phosphatase activity, and it is commercially available (Enzo Life Sciences and Calbiochem). Calmodulin is also required for calcineurin activity, and RII phosphopeptide is used as an efficient peptide substrate for calcineurin. […] The detection of free phosphate released is based on the classic Malachite green assay.
Enzo Life Sciences CaN Assay Kit: BML-AK804
For samples ‘without CypA’, a 4-point dilution series of the inhibitor was prepared in duplicate to obtain a final assay concentration of 10, 1, 0.1 and 0.01 μM. For samples ‘with CypA’, a 7-point dilution series was prepared to obtain a 1:1 complex of the inhibitor with CypA; the inhibitor and CypA final assay concentrations of 10, 3.33, 1.11, 0.37, 0.12, 0.04, 0.014 μM were prepared.
using the half area 96 well plates supplied with the kit, 10 μl UPW was added to duplicate wells to provide the non-inhibited control. 10 μl of the inhibitor or the inhibitor/CypA complex was added to the appropriate sample wells. 25 μl of the 2× assay buffer with calmodulin (CaM) was added to all wells, then 5 μl of calcineurin phosphatase (CaN) was added to all wells (40 U per well final concentration) except duplicate ‘no calcineurin blank’ wells to which 5 μL 1× assay buffer was added. The assay plate was placed in an oven at 30° C. for 15 minutes to equilibrate to the reaction temperature. The reaction was started by the addition of 10 μl RII-peptide (0.15 mM final concentration). The reaction was allowed to proceed at 30° C. for a time period in which the reaction is linear for about 60 minutes. The reaction was then terminated by adding 100 μl of the Malachite Green reagent. The color was allowed to develop for 15-30 minutes at room temperature before the absorbance at 620 nm was measured using a plate reader (Molecular Devices—SpectraMax M5). The data were analyzed by subtracting ‘no calcineurin blank’ from all the absorbance readings and plotting the background corrected absorbances against Log10 inhibitor concentration. A sigmoidal-dose response curve was fitted to the data using GraphPad Prism Software.
It exerts its immunosuppressive activity by binding to CypA to form a complex, which then binds to calcineurin and thereby inhibits calcineurin activity.

[1] = molecular target: T2, Human recombinant cyclophilin A (CypA) (Homo sapiens, UniProt P62937); test: Protease-free PPIase assay, cyclophilin A; assay type: biochemical; conditions: human recombinant CypA, 10 °C, SUC-AAPF-pNA substrate; read-out: CypA Protease-free PPIase Assay Ki
T2 construct: purchased Sigma C3805
T2 sequence (P62937 whole entry): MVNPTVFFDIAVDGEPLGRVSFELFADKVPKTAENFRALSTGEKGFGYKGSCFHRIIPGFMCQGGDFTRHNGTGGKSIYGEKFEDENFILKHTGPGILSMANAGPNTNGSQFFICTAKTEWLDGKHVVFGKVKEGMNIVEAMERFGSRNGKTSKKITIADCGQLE
Procedure: (§1) Protease-Free PPIase Assay The protease-free PPIase assay measures the rate of cis to trans conversion of a peptide substrate catalyzed by the enzyme cyclophilin A or D. Addition of a cyclophilin inhibitor (e.g., a test compound) slows the catalyzed rate and a Ki value is obtained. 35 mM HEPES pH 7.8, filtered through a 0.2 μm filter. 50 μM DTT was added prior to use each day and then the buffer was stored on ice. […] Human recombinant 6-His tagged cyclophilin D (CypD), prepared by the University of Edinburgh, was used to generate CypD inhibition data. Succinimide-[…]-nitroanilide (SUC-AAPF-pNA) (from Bachem AG, L-1400), 20 mg/ml prepared in 0.5 M LiCl in trifluoroethanol. All readings were taken with an Agilent 8453 Spectrophotometer which consisted of a cuvette holder, stirrer and chiller to maintain a stirred cuvette temperature of 10.0±0.1° C. The temperature was monitored by the use of temperature probe. […] The inhibitor was diluted in 100% DMSO, and then added to the assay to a maximum final concentration of 0.5% DMSO in the assay. […] The absorbance was measured at 330 nm for 300 s or 500 s for blank runs (NOTE: the substrate was added in one quick injection and the measurements started immediately to minimize mixing errors). A first order rate equation was fitted to the absorbance data, for each concentration of inhibitor, to obtain the rate constant (the first 10 to 15 seconds were excluded, as mixing causes errors in this portion of the curve). The catalytic rate was calculated from the enzymatic rate constant minus the background rate constant. An exponential curve was generated using the catalytic rate constants versus the inhibitor concentration to obtain the Ki value for the inhibitor. The Ki value is indicative of the binding affinity between the test compound and cyclophilin A.

[2] = molecular target: T3, Human recombinant 6-His tagged cyclophilin D (CypD) (Homo sapiens, UniProt P30405); test: Protease-free PPIase assay, cyclophilin D; assay type: biochemical; conditions: human recombinant 6-His CypD, 10 °C, SUC-AAPF-pNA substrate; read-out: CypD Protease-free PPIase Assay Ki
T3 construct: 6-His
T3 sequence (P30405 30-207): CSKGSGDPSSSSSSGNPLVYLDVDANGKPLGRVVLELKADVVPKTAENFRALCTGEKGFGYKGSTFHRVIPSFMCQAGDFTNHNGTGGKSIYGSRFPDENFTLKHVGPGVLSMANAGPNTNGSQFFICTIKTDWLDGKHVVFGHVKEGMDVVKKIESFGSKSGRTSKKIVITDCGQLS
Procedure: as §1

physchem = conditions: 25 °C, pH 7.4, aqueous buffer, kinetic from dmso stock
Procedure: The aqueous solubility of a compound of Formula I in buffer (pH 7.8) was measured by recording the onset of precipitation of the compound as a function of increasing concentration. The onset of precipitation, if it occurred, was detected by an increase in absorbance at 650 nm.
Stock solutions of Control and Test Compounds: 10 mM in 100% DMSO.
10 mM stock solutions of control and test compounds were prepared in 100% DMSO.
Assay buffer (247.5 μl) was placed into a flat bottomed transparent 96-well plate. For blank samples, DMSO (2.5 μl) was added. For test and control samples, 2.5 μl of the appropriate DMSO dilution stocks were added to the appropriate well. All test and control compounds were performed in triplicate.
The plates were sealed with adhesive plate seal and shaken at 250 rpm at 25° C. for 18 h on a plate shaker. After incubation, the plate seals were taken off and any bubbles observed in wells removed. The plates were read on a SpectraMaxM5 with a 5 s pre-shake at 650 nm.
Data files were transferred to the appropriate worksheet and the solubility range of the compounds was calculated from the data.

Row | Compound | pIC50 (calcineurin) | pKi [1] | pKi [2] | solubility at 18 h (physchem)
1 | CC[C@H]1NC(=O)[C@@H]([C@@H]2OCC[C@H]2C)N(C)C(=O)[C@@H](C(C)C)N(C)C(=O)[C@@H](CC(C)C)N(C)C(=O)[C@@H](CC(C)C)N(C)C(=O)[C@H](C)NC(=O)[C@@H](C)NC(=O)[C@@H](CC(C)C)N(C)C(=O)[C@@H](C(C)C)NC(=O)[C@H](CC(C)C)N(C)C(=O)[C@@H](C)N(C)C1=O [Compound 3, [(2S)-2-(methylamino)-2-[(2R,3R)-3-methyltetrahydrofuran-2-yl]acetic acid]^1 [(R)-methyl-Sar]^3 cyclosporin A] | < 5.00 | 7.02 | 8.36 | > 100 µM
2 | CC[C@H]1NC(=O)[C@@H]([C@@H]2OCC[C@H]2C)N(C)C(=O)[C@@H](C(C)C)N(C)C(=O)[C@@H](CC(C)C)N(C)C(=O)[C@@H](CC(C)C)N(C)C(=O)[C@H](C)NC(=O)[C@@H](C)NC(=O)[C@@H](CC(C)C)N(C)C(=O)[C@@H](C(C)C)NC(=O)[C@H](CC(C)C)N(C)C(=O)CN(C)C1=O [Compound 4, [(2S)-2-(methylamino)-2-[(2R,3R)-3-methyltetrahydrofuran-2-yl]acetic acid]^1 cyclosporin A] | < 5.00 | 6.29 | 6.04 | 
3 | CC(C)C[C@@H]1C(=O)N(C)[C@H](CC(C)C)C(=O)N(C)[C@H](C(C)C)C(=O)N(C)[C@H]([C@@H]2OC(O)C[C@H]2C)C(=O)N[C@H](C(C)C)C(=O)N(C)CC(=O)N(C)[C@@H](CC(C)C)C(=O)N[C@H](C(C)C)C(=O)N(C)[C@H](CC(C)C)C(=O)N[C@H](C)C(=O)N[C@@H](C)C(=O)N1C (stereo partly drawn) [Compound 13, [(2S)-2-[(2R,3R)-5-Hydroxy-3-methyl-tetrahydrofuran-2-yl]-2-(methylamino)acetic acid]^1 cyclosporin D] | < 5.00 | 6.38 | 6.08 | 
4 | CC[C@H]1NC(=O)[C@@H]([C@@H]2OC(O)C[C@H]2C)N(C)C(=O)[C@@H](C(C)C)N(C)C(=O)[C@@H](CC(C)C)N(C)C(=O)[C@@H](CC(C)C)N(C)C(=O)[C@H](C)NC(=O)[C@@H](C)NC(=O)[C@@H](CC(C)C)N(C)C(=O)[C@@H](C(C)C)NC(=O)[C@H](CC(C)C)N(C)C(=O)[C@@H](C)N(C)C1=O (stereo partly drawn) [Compound 12, [(2R)-2-[(2R,3R)-5-hydroxy-3-methyl-tetrahydrofuran-2-yl]-2-(methylamino)acetic acid]^1[(R)-methyl-Sar]^3 cyclosporin A] | < 5.00 | 7.31 | 7.92 | 
5 | CC(C)C[C@@H]1C(=O)N(C)[C@H](CC(C)C)C(=O)N(C)[C@H](C(C)C)C(=O)N(C)[C@H]([C@@H]2OCC[C@H]2C)C(=O)N[C@H]([C@@H](C)O)C(=O)N(C)[C@H](C)C(=O)N(C)[C@@H](CC(C)C)C(=O)N[C@H](C(C)C)C(=O)N(C)[C@H](CC(C)C)C(=O)N[C@H](C)C(=O)N[C@@H](C)C(=O)N1C [Compound 11, [(2S)-2-(methylamino)-2-[(2R,3R)-3-methyltetrahydrofuran-2-yl]acetic acid]^1 [(R)-methyl-Sar]^3 cyclosporin C] (cyclo(A[dNMeL][dNMeL][dNMeV][X1][d(aThr)][dNMeA][NMeL][dV][dNMeL][dA])) | < 5.00 | 6.57 | 7.74 | 

Next, values leading:

Row | pIC50 (calcineurin) | pKi [1] | pKi [2] | solubility at 18 h (physchem) | Compound
6 | < 5.00 | 6.12 | 6.55 |  | CC[C@H]1NC(=O)[C@@H]([C@@H]2OCN(C)C[C@H]2C)N(C)C(=O)[C@@H](C(C)C)N(C)C(=O)[C@@H](CC(C)C)N(C)C(=O)[C@@H](CC(C)C)N(C)C(=O)[C@H](C)NC(=O)[C@@H](C)NC(=O)[C@@H](CC(C)C)N(C)C(=O)[C@@H](C(C)C)NC(=O)[C@H](CC(C)C)N(C)C(=O)CN(C)C1=O [Compound 23, [(2R)-2-[(5R,6R)-3,5-dimethyl-1,3-oxazinan-6-yl]-2-(methylamino)acetic acid]^1 cyclosporin A]
7 | < 5.00 | 5.82 | 6.98 | > 100 µM | CC(C)C[C@@H]1C(=O)N(C)[C@H](CC(C)C)C(=O)N(C)[C@H](C(C)C)C(=O)N(C)[C@H]([C@@H]2OCC[C@H]2C)C(=O)N[C@H]([C@@H](C)O)C(=O)N(C)CC(=O)N(C)[C@@H](CC(C)C)C(=O)N[C@H](C(C)C)C(=O)N(C)[C@H](CC(C)C)C(=O)N[C@H](C)C(=O)N[C@@H](C)C(=O)N1C [Compound 8, [(2S)-2-(methylamino)-2-[(2R,3R)-3-methyltetrahydrofuran-2-yl]acetic acid]^1 cyclosporin C]
8 | 5.18 | 6.41 | 6.25 |  | CC[C@H]1NC(=O)[C@@H]([C@@H]2OCCCC[C@H]2C)N(C)C(=O)[C@@H](C(C)C)N(C)C(=O)[C@@H](CC(C)C)N(C)C(=O)[C@@H](CC(C)C)N(C)C(=O)[C@H](C)NC(=O)[C@@H](C)NC(=O)[C@@H](CC(C)C)N(C)C(=O)[C@@H](C(C)C)NC(=O)[C@H](CC(C)C)N(C)C(=O)CN(C)C1=O [Compound 16, [(2S)-2-(methylamino)-2-[(2R,3R)-3-methyloxepan-2-yl]acetic acid]^1 cyclosporin A]
9 | 5.11 | 6.98 | 7.07 |  | CC[C@H]1NC(=O)[C@@H]([C@@H]2OCCCC[C@H]2C)N(C)C(=O)[C@@H](C(C)C)N(C)C(=O)[C@@H](CC(C)C)N(C)C(=O)[C@@H](CC(C)C)N(C)C(=O)[C@H](C)NC(=O)[C@@H](C)NC(=O)[C@@H](CC(C)C)N(C)C(=O)[C@@H](C(C)C)NC(=O)[C@H](CC(C)C)N(C)C(=O)[C@@H](C)N(C)C1=O [Compound 17, [(2S)-2-(methylamino)-2-[(2R,3R)-3-methyloxepan-2-yl]acetic acid]^1 [(R)-methyl-Sar]^3 cyclosporin A]
10 | 5.28 | 7.42 | 7.34 |  | CC[C@H]1NC(=O)[C@@H]([C@@H]2OCCC[C@H]2C)N(C)C(=O)[C@@H](C(C)C)N(C)C(=O)[C@@H](CC(C)C)N(C)C(=O)[C@@H](CC(C)C)N(C)C(=O)[C@H](C)NC(=O)[C@@H](C)NC(=O)[C@@H](CC(C)C)N(C)C(=O)[C@@H](C(C)C)NC(=O)[C@H](CC(C)C)N(C)C(=O)[C@@H](C)N(C)C1=O [Compound 15, [(2S)-2-(methylamino)-2-[(2R,3R)-3-methyltetrahydropyran-2-yl]acetic acid]^1 [(R)-methyl-Sar]^3 cyclosporin A]
11 | 5.09 | 6.52 | 7.38 |  | [(2R)-2-[(5R,6R)-3,5-dimethyl-2-oxo-1,3-oxazinan-6-yl]-2-(methylamino)acetic acid]^1 cyclosporin A [Compound 21]

Reference: patent US9914755B2, “Cyclosporin derivatives wherein the MeBmt sidechain has been cyclized” (Allergan, Inc., priority 2015, dated 2018)
